Holding throughout (type): functional
One experiment relates to Bacillus subtilis. In words: Antibacterial activity against Bacillus subtilis assessed as growth inhibition after 24 hr by NCCLS broth microdilution method.
For a further experiment, the system named is Candida tropicalis. Kind of experiment: Antifungal activity against Candida tropicalis assessed as growth inhibition after 24 hr by NCCLS broth microdilution method.
The test system of a further experiment is Pseudomonas aeruginosa. In words: Antibacterial activity against Pseudomonas aeruginosa assessed as growth inhibition after 24 hr by NCCLS broth microdilution method. For orientation: In broth dilution the organism is exposed to a series of concentrations in liquid medium.
The subject of another experiment is Aspergillus niger. In words: Antifungal activity against Aspergillus niger assessed as growth inhibition after 24 hr by NCCLS broth microdilution method.
The test system of another experiment is Candida albicans. Kind of experiment: Antifungal activity against Candida albicans assessed as growth inhibition after 24 hr by NCCLS broth microdilution method.
The next experiment deals with Aspergillus flavus. In words: Antifungal activity against Aspergillus flavus assessed as growth inhibition after 24 hr by NCCLS broth microdilution method.
The test system of another experiment is Escherichia coli. Kind of experiment: Antibacterial activity against Escherichia coli assessed as growth inhibition after 24 hr by NCCLS broth microdilution method.
A further experiment concerns Staphylococcus aureus. In words: Antibacterial activity against Staphylococcus aureus assessed as growth inhibition after 24 hr by NCCLS broth microdilution method.
For the next experiment, the system named is Bacillus pumilus. Kind of experiment: Antibacterial activity against Bacillus pumilus assessed as growth inhibition after 24 hr by NCCLS broth microdilution method.

Results on nine molecules are retold here after ChEMBL document CHEMBL3045725, “Synthesis and antimicrobial activity of some (3-phenyl-5-(1-phenyl-3-aryl-1H-pyrazol-4-yl)-4,5-dihydro-1H-pyrazol-1-yl)(pyridin-4-yl)methanones: new derivatives of 1,3,5-trisubstituted pyrazolines” (2013).

Values after ≈ are worked out from the molar mass of the structure shown.

A word on the MIC: it is the smallest concentration in the dilution series that meets the test's criterion for growth inhibition. For `COc1ccc(-c2nn(-c3ccccc3)cc2C2CC(c3ccccc3)=NN2C(=O)c2ccncc2)cc1` (racemic), the MIC in the experiment with Bacillus subtilis stood at 6.25 µg/mL (≈ 12.5 µM); with Candida tropicalis it was 12.5 µg/mL (≈ 25 µM); in the experiment with Pseudomonas aeruginosa it was 12.5 µg/mL (≈ 25 µM); with Aspergillus niger, 50 µg/mL (≈ 100 µM); in the experiment with Candida albicans, 12.5 µg/mL (≈ 25 µM); in the experiment with Aspergillus flavus, 50 µg/mL (≈ 100 µM). In addition, the MIC in the experiment with Escherichia coli, with Staphylococcus aureus and in the experiment on Bacillus pumilus was 6.25 µg/mL (≈ 12.5 µM) each time.

Turning to `Cc1ccc(-c2nn(-c3ccccc3)cc2C2CC(c3ccccc3)=NN2C(=O)c2ccncc2)cc1` (racemic), the MIC turned out to be 12.5 µg/mL (≈ 25.8 µM) in the experiment with Bacillus subtilis; 50 µg/mL (≈ 103 µM) in the experiment on Candida tropicalis; 25 µg/mL (≈ 51.7 µM) in the experiment with Pseudomonas aeruginosa; 100 µg/mL (≈ 207 µM) in the experiment with Aspergillus niger; 25 µg/mL (≈ 51.7 µM) with Candida albicans; 100 µg/mL (≈ 207 µM) in the experiment with Aspergillus flavus. The MIC in the experiment with Escherichia coli amounted to 12.5 µg/mL (≈ 25.8 µM); in the experiment with Staphylococcus aureus it was 6.25 µg/mL (≈ 12.9 µM); in the experiment with Bacillus pumilus, 12.5 µg/mL (≈ 25.8 µM).

On to `O=C(c1ccncc1)N1N=C(c2ccccc2)CC1c1cn(-c2ccccc2)nc1-c1ccc(Cl)cc1` (racemic), for which the minimum inhibitory concentration (MIC) in the experiment on Bacillus subtilis was 25 µg/mL (≈ 49.6 µM); in the experiment with Candida tropicalis it was 100 µg/mL (≈ 198 µM); in the experiment with Pseudomonas aeruginosa it was 25 µg/mL (≈ 49.6 µM); in the experiment on Aspergillus niger, greater than 200 µg/mL; in the experiment on Candida albicans, 100 µg/mL (≈ 198 µM); with Aspergillus flavus, 200 µg/mL (≈ 397 µM). In addition, the MIC in the experiment on Escherichia coli worked out at 25 µg/mL (≈ 49.6 µM); in the experiment with Staphylococcus aureus, 12.5 µg/mL (≈ 24.8 µM); in the experiment with Bacillus pumilus, 25 µg/mL (≈ 49.6 µM).

As to `O=C(O)c1cn(C2CC2)c2cc(N3CCNCC3)c(F)cc2c1=O` [CIPROFLOXACIN], the MIC in the experiment on Bacillus subtilis, in the experiment on Pseudomonas aeruginosa, in the experiment with Escherichia coli, in the experiment on Staphylococcus aureus and in the experiment on Bacillus pumilus was 3.12 µg/mL (≈ 9.43 µM) in each case.

For the molecule `COc1ccccc1-c1nn(-c2ccccc2)cc1C1CC(c2ccccc2)=NN1C(=O)c1ccncc1` (racemic), the minimum inhibitory concentration (MIC) amounted to 6.25 µg/mL (≈ 12.5 µM) with Bacillus subtilis; 6.25 µg/mL (≈ 12.5 µM) with Candida tropicalis; 6.25 µg/mL (≈ 12.5 µM) with Pseudomonas aeruginosa; 50 µg/mL (≈ 100 µM) in the experiment on Aspergillus niger; 6.25 µg/mL (≈ 12.5 µM) in the experiment on Candida albicans; 50 µg/mL (≈ 100 µM) in the experiment on Aspergillus flavus. Besides, the MIC in the experiment on Escherichia coli, in the experiment with Staphylococcus aureus and in the experiment with Bacillus pumilus was 6.25 µg/mL (≈ 12.5 µM) throughout.

Take `O=C(c1ccncc1)N1N=C(c2ccccc2)CC1c1cn(-c2ccccc2)nc1-c1ccccc1` (racemic): the MIC with Bacillus subtilis was 50 µg/mL (≈ 106 µM); in the experiment on Candida tropicalis it was 200 µg/mL (≈ 426 µM); with Pseudomonas aeruginosa, 50 µg/mL (≈ 106 µM); in the experiment with Aspergillus niger, 100 µg/mL (≈ 213 µM); with Candida albicans, 200 µg/mL (≈ 426 µM); with Aspergillus flavus, greater than 200 µg/mL. In addition, the MIC in the experiment with Escherichia coli was determined as 50 µg/mL (≈ 106 µM); in the experiment with Staphylococcus aureus, 25 µg/mL (≈ 53.2 µM); with Bacillus pumilus it was 50 µg/mL (≈ 106 µM).

Turning to `OC(Cn1cncn1)(Cn1cncn1)c1ccc(F)cc1F` [FLUCONAZOLE], the minimal inhibitory concentration (MIC) was found to be 6.25 µg/mL (≈ 20.4 µM) in the experiment on Candida tropicalis, 12.5 µg/mL (≈ 40.8 µM) in the experiment on Aspergillus niger, 3.12 µg/mL (≈ 10.2 µM) with Candida albicans and 12.5 µg/mL (≈ 40.8 µM) with Aspergillus flavus.

Consider `O=C(c1ccncc1)N1N=C(c2ccccc2)CC1c1cn(-c2ccccc2)nc1-c1ccc(Br)cc1` (racemic), for which the minimum inhibitory concentration (MIC) in the experiment with Bacillus subtilis is 25 µg/mL (≈ 45.6 µM); in the experiment with Candida tropicalis it was 100 µg/mL (≈ 182 µM); in the experiment on Pseudomonas aeruginosa, 50 µg/mL (≈ 91.2 µM); in the experiment with Aspergillus niger, greater than 200 µg/mL; in the experiment with Candida albicans, 50 µg/mL (≈ 91.2 µM); with Aspergillus flavus, 200 µg/mL (≈ 365 µM). In addition, the values for the MIC in the experiment on Escherichia coli, in the experiment on Staphylococcus aureus and in the experiment on Bacillus pumilus were 50 µg/mL (≈ 91.2 µM), 12.5 µg/mL (≈ 22.8 µM) and 25 µg/mL (≈ 45.6 µM), respectively.

As to `O=C(c1ccncc1)N1N=C(c2ccccc2)CC1c1cn(-c2ccccc2)nc1-c1ccc(F)cc1` (racemic), the minimum inhibitory concentration (MIC) is 12.5 µg/mL (≈ 25.6 µM) in the experiment with Bacillus subtilis; 50 µg/mL (≈ 103 µM) with Candida tropicalis; 12.5 µg/mL (≈ 25.6 µM) with Pseudomonas aeruginosa; 200 µg/mL (≈ 410 µM) in the experiment with Aspergillus niger; 50 µg/mL (≈ 103 µM) in the experiment with Candida albicans; 200 µg/mL (≈ 410 µM) in the experiment on Aspergillus flavus. Moreover, the MIC with Escherichia coli was 12.5 µg/mL (≈ 25.6 µM); with Staphylococcus aureus, 6.25 µg/mL (≈ 12.8 µM); in the experiment with Bacillus pumilus, 25 µg/mL (≈ 51.3 µM).
